Among the data in US20210198277A1, “AMINE-SUBSTITUTED ARYL OR HETEROARYL COMPOUNDS” (Epizyme, Inc., priority 2016, published 2021) are IC50 values, retold here.

Where only a bound is given, the exact number is not on record here.

One experiment deals with T1, human EHMT2 913-1193 (Homo sapiens, UniProt Q96KQ7).
T1 construct: recombinant purified human EHMT2 913-1193, Viva; purchased Viva
T1 sequence (Q96KQ7 913-1193): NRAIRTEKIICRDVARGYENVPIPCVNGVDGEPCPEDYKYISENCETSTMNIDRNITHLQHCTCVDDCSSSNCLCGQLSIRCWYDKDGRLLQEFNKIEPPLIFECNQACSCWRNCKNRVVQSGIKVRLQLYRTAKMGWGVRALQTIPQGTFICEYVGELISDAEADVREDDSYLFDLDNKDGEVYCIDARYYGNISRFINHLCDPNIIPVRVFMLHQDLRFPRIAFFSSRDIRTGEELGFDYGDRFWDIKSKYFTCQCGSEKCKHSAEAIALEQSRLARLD
As to the kind of experiment: EHMT2 enzyme assay on histone peptide substrate (EHMT2 PEP). In kind it is biochemical. The following applies: Table II; read-out: EHMT2 PEP (IC50 μM). A digest of the protocol: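 Inhibition is measured as reduced tritium incorporation into a biotinylated histone peptide from ^3H-SAM. The enzyme (0.031 nM) sees compound for 30 minutes before a 60-minute room-temperature reaction, which unlabeled SAM quenches prior to streptavidin Flashplate capture.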

The target of the next experiment is T2, EHMT1 (Homo sapiens, UniProt Q9H9B1).
T2 sequence (Q9H9B1 1-1298): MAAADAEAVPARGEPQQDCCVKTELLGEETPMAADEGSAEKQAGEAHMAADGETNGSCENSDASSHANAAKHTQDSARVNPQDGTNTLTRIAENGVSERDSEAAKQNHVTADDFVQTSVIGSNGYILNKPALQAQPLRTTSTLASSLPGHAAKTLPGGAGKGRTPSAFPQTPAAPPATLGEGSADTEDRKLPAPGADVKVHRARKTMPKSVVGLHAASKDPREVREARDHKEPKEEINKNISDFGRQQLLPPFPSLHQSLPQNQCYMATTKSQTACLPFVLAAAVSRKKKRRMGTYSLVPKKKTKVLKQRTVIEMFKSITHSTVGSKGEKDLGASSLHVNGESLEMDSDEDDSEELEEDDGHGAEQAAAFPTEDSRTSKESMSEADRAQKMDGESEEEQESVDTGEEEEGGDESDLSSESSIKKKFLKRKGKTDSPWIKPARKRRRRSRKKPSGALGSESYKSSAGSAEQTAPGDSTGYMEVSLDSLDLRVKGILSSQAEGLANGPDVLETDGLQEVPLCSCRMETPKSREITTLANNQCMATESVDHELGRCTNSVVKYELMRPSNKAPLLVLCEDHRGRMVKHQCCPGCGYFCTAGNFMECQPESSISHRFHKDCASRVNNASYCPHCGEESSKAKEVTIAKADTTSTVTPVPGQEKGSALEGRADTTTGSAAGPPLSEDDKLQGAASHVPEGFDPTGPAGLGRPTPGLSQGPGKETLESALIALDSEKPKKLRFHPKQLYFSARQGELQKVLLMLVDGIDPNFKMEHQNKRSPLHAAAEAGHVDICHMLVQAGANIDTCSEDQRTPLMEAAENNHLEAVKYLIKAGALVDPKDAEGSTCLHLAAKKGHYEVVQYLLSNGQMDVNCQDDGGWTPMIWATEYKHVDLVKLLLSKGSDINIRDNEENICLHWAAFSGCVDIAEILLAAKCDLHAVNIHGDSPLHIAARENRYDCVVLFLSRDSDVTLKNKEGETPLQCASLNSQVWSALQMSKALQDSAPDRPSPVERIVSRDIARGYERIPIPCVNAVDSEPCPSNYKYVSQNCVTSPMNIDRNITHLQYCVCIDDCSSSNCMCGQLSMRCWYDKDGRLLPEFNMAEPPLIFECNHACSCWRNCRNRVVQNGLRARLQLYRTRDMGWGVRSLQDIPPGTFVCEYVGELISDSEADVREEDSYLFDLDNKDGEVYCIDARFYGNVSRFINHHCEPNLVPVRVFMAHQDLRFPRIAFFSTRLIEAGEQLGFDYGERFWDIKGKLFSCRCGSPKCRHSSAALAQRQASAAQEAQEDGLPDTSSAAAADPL
As to the kind of experiment: EHMT1 enzyme assay on peptide substrate (EHMT1 PEP). Type of experiment: biochemical. Conditions: Table II; read-out: EHMT1 PEP (IC50 μM).

The IC50 is the concentration needed to halve the response being measured. `COc1ccc(Nc2nccc(NCCNC(C)=O)n2)cc1OCCCN1CCCC1` [Compound 38]: the IC50 at human EHMT2 913-1193 is < 0.1 µM; at EHMT1 it was 0.1 to 1 µM.
The corresponding values for `COCCCNc1ccnc(Nc2ccc(OC)c(OCCCN3CCCC3)c2)n1` [Compound 22] are < 0.1 µM and < 0.1 µM.
On the same counts, the results for `COc1ccc(Nc2cccc3ncnn23)cc1OCCCN1CCCC1` [Compound 220] are > 10 µM and > 10 µM.
On the same counts, the results for `CNc1ccnc(Nc2ccc(OC)c(OCCCN3CCCC3)c2)c1` [Compound 209, N^2-(4-methoxy-3-(3-(pyrrolidin-1-yl)propoxy)phenyl)-N^4-methylpyridine-2,4-diamine] are 0.1 to 1 µM and 0.1 to 1 µM.
Regarding `CNc1nc(Nc2ccc(OC)c(OCCCN3CCCC3)c2)nc(C)c1F` [Compound 236], the IC50 on human EHMT2 913-1193 and on EHMT1 was 0.1 to 1 µM in each case.
On to `COc1ccc(Nc2ccc3nn(C)cc3c2)cc1OCCCN1CCCC1` [Compound 221], for which the concentration for half-maximal inhibition (IC50) at human EHMT2 913-1193 and at EHMT1 was > 10 µM each time.
Take `COc1ccc(Nc2nccc(NCC3CCOCC3)n2)cc1NCCCN1CCCC1` [Compound 226]: the 50% inhibitory concentration (IC50) on human EHMT2 913-1193 fell in the range of 0.1 to 1 µM; at EHMT1, 1 to 10 µM.
The corresponding values for `CNc1ccnc(Nc2ccc3c(c2)N(C(=O)CCN(C)C)CC3)n1` [Compound 239] are > 10 µM and > 10 µM.
On to `CNc1ccnc(Nc2ccc(OC)c(OCCCN3CCOCC3)c2)n1` [Compound 210], for which the IC50 on human EHMT2 913-1193 and on EHMT1 was 1 to 10 µM each time.
For `COc1ccc(Nc2nccc(NC3CCCCC3)n2)cc1OCCCN1CCCC1` [Compound 50], the IC50 at human EHMT2 913-1193 and on EHMT1 was 0.1 to 1 µM in each case.
Turning to `COc1ccc(Nc2cccc(NC3CCC3)n2)cc1OCCCN1CCCC1` [Compound 35], the IC50 at human EHMT2 913-1193 and on EHMT1 was 0.1 to 1 µM each time.
Consider `COc1ccc(Nc2nccc(NCC3CCOCC3)n2)cc1OC1CC2(C1)CN(C)C2` [Compound 243], for which the IC50 on human EHMT2 913-1193 and at EHMT1 was > 10 µM throughout.
`CNc1cnnc(Nc2ccc(OC)c(OCCCN3CCCC3)c2)c1` [Compound 246]: the IC50 at human EHMT2 913-1193 and on EHMT1 was 0.1 to 1 µM in each case.
With `CNc1ccnc(Nc2ccc(OC)c(OCCN3CCOCC3)c2)n1` [Compound 237], the IC50 at human EHMT2 913-1193 and at EHMT1 was 1 to 10 µM throughout.
In the case of `CNc1ccnc(Nc2ccc(OC)c(OCCCN3CC[C@@H](F)C3)c2)n1` [Compound 229], the IC50 at human EHMT2 913-1193 and on EHMT1 was 0.1 to 1 µM in each case.
In the case of `CNc1cc(C)nc(Nc2ccc(F)c(OCCCN3CCCC3)c2)n1` [Compound 232], the half-maximal inhibitory concentration (IC50) at human EHMT2 913-1193 and at EHMT1 was > 10 µM each time.
In the case of `COc1ccc(Nc2nccc(NCCOc3ccccc3)n2)cc1OCCCN1CCCC1` [Compound 40], the IC50 on human EHMT2 913-1193 and at EHMT1 was 0.1 to 1 µM each time.
As to `COc1ccc(Nc2cccc3cn(C)nc23)cc1OCCCN1CCCC1` [Compound 222], the 50% inhibitory concentration (IC50) on human EHMT2 913-1193 and on EHMT1 was > 10 µM throughout.
On to `COc1ccc(Nc2ccnc3[nH]ccc23)cc1OCCCN1CCCC1` [Compound 250], for which the IC50 on human EHMT2 913-1193 and on EHMT1 was 1 to 10 µM throughout.
For `COc1ccc(Nc2nccc(NCC3CCN(c4ccccc4)CC3)n2)cc1OCCCN1CCCC1` [Compound 33], the concentration for half-maximal inhibition (IC50) on human EHMT2 913-1193 is < 0.1 µM; at EHMT1, 0.1 to 1 µM.
On the same counts, the results for `COc1ccc(Nc2nccc(NCc3cc[nH]n3)n2)cc1OCCCN1CCCC1` [Compound 46] are < 0.1 µM and 0.1 to 1 µM.
The corresponding values for `COCCNc1ccnc(Nc2ccc(OC)c(OCCCN3CCCC3)c2)n1` [Compound 27] are 0.1 to 1 µM and 0.1 to 1 µM.
Consider `COc1ccc(Nc2nccc(NCC3CCNCC3)n2)cc1OCCCN1CCOCC1` [Compound 16, N^2-(4-methoxy-3-(3-morpholinopropoxy)phenyl)-N^4-(piperidin-4-ylmethyl)pyrimidine-2,4-diamine], for which the IC50 on human EHMT2 913-1193 and at EHMT1 was 0.1 to 1 µM throughout.
As for `COc1ccc(Nc2nccc(NCC3CCCC3)n2)cc1OCCCN1CCCC1` [Compound 34], the IC50 on human EHMT2 913-1193 was < 0.1 µM; on EHMT1 it was 0.1 to 1 µM.
For the compound `COc1ccc(Nc2nccc(Nc3cccc(F)c3)n2)cc1OCCCN1CCCC1` [Compound 225], the IC50 at human EHMT2 913-1193 and on EHMT1 was 1 to 10 µM each time.
For the compound `CNc1cc(Nc2cc(OCCCN3CCCC3)c(OC)cn2)ccn1` [Compound 248], the IC50 at human EHMT2 913-1193 and at EHMT1 was < 0.1 µM each time.
As to `COc1ccc(Nc2nccc(NCc3cccnc3)n2)cc1OCCCN1CCCC1` [Compound 25], the IC50 at human EHMT2 913-1193 and at EHMT1 was < 0.1 µM throughout.
As for `COc1ccc(Nc2cnnc(NCC3CCN(C(C)=O)CC3)c2)cc1OCCCN1CCCC1` [Compound 242], the IC50 at human EHMT2 913-1193 and on EHMT1 was 1 to 10 µM throughout.
With `COc1ccc(Nc2nccc(NCC3CCN(C(C)=O)CC3)n2)cc1OCCCN1CCCC1` [Compound 47, 1-(4-(((2-((4-methoxy-3-(3-(pyrrolidin-1-yl)propoxy)phenyl)amino)pyrimidin-4-yl)amino)methyl)piperidin-1-yl)ethan-1-one], the half-maximal inhibitory concentration (IC50) at human EHMT2 913-1193 and on EHMT1 was < 0.1 µM each time.
In the case of `COc1ccc(Nc2nccc(NCC3CCN(C(C)C)CC3)n2)cc1OCCCN1CCCC1` [Compound 29], the IC50 on human EHMT2 913-1193 and at EHMT1 was < 0.1 µM in each case.
`COc1cccc(CNc2ccnc(Nc3ccc(OC)c(OCCCN4CCCC4)c3)n2)c1` [Compound 26]: the figures for the half-inhibitory concentration (IC50) on human EHMT2 913-1193 and at EHMT1 were < 0.1 µM and 0.1 to 1 µM, respectively.
On the same counts, the results for `COc1ccc(OCCCN2CCCC2)cc1Nc1nccc(NCC2CCOCC2)n1` [Compound 227] are > 10 µM and > 10 µM.
With `COc1ccc(Nc2nccc(-c3cnn(C)c3)n2)cc1OCCCN1CCCC1` [Compound 224], the IC50 at human EHMT2 913-1193 and at EHMT1 was > 10 µM in each case.
With `COc1ccc(Nc2nccc(NCCc3ccncc3)n2)cc1OCCCN1CCCC1` [Compound 39], the IC50 at human EHMT2 913-1193 and at EHMT1 was < 0.1 µM in each case.
`CNc1cncc(Nc2ccc(OC)c(OCCCN3CCCC3)c2)n1` [Compound 247]: the IC50 on human EHMT2 913-1193 and at EHMT1 was 1 to 10 µM throughout.
`CNc1ccnc(Nc2cccc(OC[C@H](O)CN3CCCC3)c2)n1` [Compound 252]: the IC50 on human EHMT2 913-1193 and on EHMT1 was 1 to 10 µM throughout.
Take `COc1ccc(Nc2nccc(-n3nc(C)cc3C)n2)cc1OCCCN1CCCC1` [Compound 214]: the IC50 at human EHMT2 913-1193 and at EHMT1 was > 10 µM throughout.
Consider `COc1ccc(Nc2nccc(NCC3(O)CCCCC3)n2)cc1OCCCN1CCCC1` [Compound 45], for which the IC50 on human EHMT2 913-1193 and on EHMT1 was 0.1 to 1 µM throughout.
As for `COc1ccccc1CNc1ccnc(Nc2ccc(OC)c(OCCCN3CCCC3)c2)n1` [Compound 36], the IC50 was < 0.1 µM on human EHMT2 913-1193 and 0.1 to 1 µM on EHMT1.
The corresponding values for `COc1ccc(Nc2nccc(NCC3(O)CCOCC3)n2)cc1OCCCN1CCCC1` [Compound 49] are 0.1 to 1 µM and 0.1 to 1 µM.
The corresponding values for `COc1ccc(Nc2nccc(NCC3CCN(C(C)=O)CC3)n2)cc1COCCN1CCCC1` [Compound 48] are 0.1 to 1 µM and 0.1 to 1 µM.
On the same counts, the results for `COc1ccc(Nc2nccc(NCCS(=O)(=O)N(C)C)n2)cc1OCCCN1CCCC1` [Compound 43] are 0.1 to 1 µM and 0.1 to 1 µM.
